The values that follow come from article PMC9916762, “Impact of Hydrophobic Chains in Five-Coordinate Glucoconjugate Pt(II) Anticancer Agents” (International Journal of Molecular Sciences, 2023).

Data set [1] is described as follows: Octanol/water partition coefficient, shake-flask method. In kind it is physicochemical. The note with it: n-octanol/water, UV-vis. The protocol: The partition coefficients in octanol/water (log Po/w) were measured using the shake-flask method, by calculating the equilibrium concentrations through UV spectra (Table 1).
Partition coefficients for the platinum complexes were determined in triplicate in an n-octanol/water system, with different ratios (1:1, 1:2, 2:1). Each complex was dissolved in n-octanol at the concentrations 16.7, 12.5, or 10 μM and subsequently, an appropriate volume of water was added. The mixtures were shaken mechanically for 1 h to ensure the distribution between the two solvent phases. The samples were then centrifuged (13,000 rpm, 10 min). Afterwards, the platinum concentration was determined in the octanol phases by UV–vis spectrophotometry, after collecting a calibration line for each complex. Results are expressed as the logarithm of the partition coefficient of octanol/water (log Po/w), which is the logarithm of the concentration of platinum in the n-octanol divided by its concentration in the aqueous layer.

For data set [2], the system named is murine fibroblast BALB/c-3T3 transformed with the SV40 virus (SVT2). The data set can be described thus: MTT cell viability assay, SVT2. In kind it is cell-based. The note with it: for IC50: 48 h incubation, MTT; for SI (selectivity index): ratio IC50 BALB-c/3T3 / IC50 SVT2. From the text:
(§1) The immortalized human keratinocytes (HaCaT) were from Innoprot.
In general terms: Tetrazolium dyes change colour on reduction, which living cells bring about.

Data set [3] concerns immortalized murine fibroblasts (BALB/c-3T3). The note with it: read-out: IC50 BALB-c/3T3; 48 h incubation, MTT. As to the method:
To evaluate their biological activity, the effects of the four complexes on cell viability were evaluated in eukaryotic cell models. For this purpose, experiments were performed on two cancer cell lines, i.e., human epidermoid carcinoma cells (A431) and murine fibroblast BALB/c-3T3 transformed with the SV40 virus (SVT2), and on two non-cancer cell lines, i.e., immortalized human keratinocytes (HaCaT) and immortalized murine fibroblasts (BALB/c-3T3). Cells were incubated with increasing concentrations of 1,Me-Me, 1,Oct-Me, 1,Me-Oct, and 1,Oct-Oct (from 0.1 to 50 μM). After 48 h of incubation, cytotoxicity was determined by MTT assay and cell survival was expressed as the percentage of viable cells in the presence of each complex compared with that of the untreated cells (Figure S19).
The immortalized human keratinocytes (HaCaT) were from Innoprot. Human The A431 epidermoid carcinoma, murine BALB/c-3T3, and SVT2 fibroblasts were from ATCC. Cells were cultured in Dulbecco’s modified Eagle’s medium (DMEM) (Sigma-Aldrich, St. Louis, MO, USA), supplemented with 10% foetal bovine serum (HyClone), 2 mM L-glutamine, and antibiotics, all from Sigma-Aldrich, under a 5% CO2-humidified atmosphere at 37 °C. To test the effects of the complexes on cell viability, cells were seeded at a density of 2.5 × 10^3 cells per well in 96-well plates. After 24 h, cells were incubated with increasing concentrations (from 0.1 to 50 μM) of the four complexes. After 48 h, cell viability was assessed by the MTT assay, as previously reported in [43]. Cell viability was expressed as the percentage of viable cells in the presence of the Pt complexes compared to the controls, represented by untreated cells and cells supplemented with identical volumes of DMSO. Each sample was tested in three independent analyses, each carried out in triplicate.

Data set [4] deals with immortalized human keratinocytes (HaCaT). The data set can be described thus: MTT cell viability assay, HaCaT. In kind it is cell-based. The note with it: 48 h incubation.
Description: as §1

Data set [5] relates to human epidermoid carcinoma cells (A431). Put plainly: MTT cell viability assay, A431. In kind it is cell-based. The note with it: for IC50: 48 h incubation, MTT; for SI (selectivity index): ratio IC50 HaCaT / IC50 A431.
Description: as §1

Data set [6] concerns A431 cells. The data set can be described thus: Western blot of pro-caspases 9 and 3, A431. In kind it is cell-based, human. The settings on record: A431, 2.3 μM, 48 h. The protocol:
(§2) In particular, SVT2 and A431 were incubated for 48 h with 1-Me,Me and 1-Oct,Me, using the IC50 value concentrations. At the end of incubation, uptake and cell death mechanisms were evaluated. […] Finally, apoptosis was investigated by Western blot analyses using specific antibodies against pro-caspases 9 and 3.
The SVT2 were seeded on six-well plates at a density of 2.5 × 10^5 cells/well, whereas A431 was seeded at a density of 3 × 10^5 cells/well. After 24 h, cells were treated with 9.8 μM of 1-Me,Me or 2.3 μM 1-Oct,Me. After 48 h of incubation, Western blot analyses were performed by using pro-caspase 9 (Cell Signaling Technology, Danvers, MA, USA) and pro-caspase 3 (Abcam, Cambridge, MA, USA) antibodies, as reported by Del Giudice et al. Protein intensity levels were normalized using β-actin (Sigma-Aldrich, St. Louis, MO, USA). The chemiluminescence detection system was purchased from Bio-Rad (Hercules, CA, USA).
Background: In western blotting, separated proteins are transferred to a membrane and probed.

The test system of data set [7] is A431 cells. The data set can be described thus: Cellular Pt uptake by ICP-MS, A431. In kind it is cell-based, human. The note with it: A431, 2.3 μM (IC50), 48 h, mean ± S.E. As to the method: as §2
To study the uptake of the complexes, SVT2 and A431 were incubated for 48 h in the presence of 1-Me,Me and 1-Oct,Me, respectively, at their IC50 concentrations. At the end of incubation, Pt determination was performed by inductively coupled plasma mass spectrometry (ICP-MS, Aurora M90; Bruker, Ettlingen/Leipzig, Germany) in the “Normal Sensitivity” mode. Calibration curves for the quantification of Pt ranged from 0.1 to 100 μg/L and were constructed daily by the analysis of the standard solutions prepared immediately before analysis. All standards used for analysis were prepared in HNO3 solution (2%, v/v). The internal standards were ^89Y and ^115In in both the calibration curve and sample analyses. The linearity was acceptable with an R^2 value greater than 0.9996. The treatment of the cells involved a wet digestion: after centrifugation, cell samples were wet digested with 1 mL of ultrapure HNO3 (67–69%, v/v). The mixture was gently boiled over a water bath (90 °C) for 3 h until a clear solution was obtained. […]

Consider “Platinum(1+), (2,9-dimethyl-1,10-phenanthroline- N1,N10)(η2-ethene)methyl[1,3-dihydro-1-methyl-3-octyl-4-[1-[2,3,4,6-tetrakis-O-(acetyl)-β-D-glucopyranosyl]-1H-1,2,3-triazol-4-yl]-2H-imidazol-2-ylidene], 1,1,1-trifluoromethanesulfonate [1-Me,Oct]”, for which the “Log Po/w” value in data set [1] is listed as 0.74. Also, the IC50 in data set [2] was 7.6 ± 1.1 µM; in data set [3], 8.3 ± 0.4 µM; in data set [4] it was 8 ± 0.1 µM; in data set [5], 7.3 ± 0.4 µM. Besides, the “SI (selectivity index)” value in data set [2] came out at 1.09; in data set [5], 1.1.

Regarding “Platinum(1+), (2,9-dimethyl-1,10-phenanthroline- N1,N10)(η2-ethene)octyl[1,3-dihydro-1,3-dimethyl-4-[1-[2,3,4,6-tetrakis-O-(acetyl)-β-D-glucopyranosyl]-1H-1,2,3-triazol-4-yl]-2H-imidazol-2-ylidene], 1,1,1-trifluoromethanesulfonate [1-Oct,Me]”, the “Log Po/w” value in data set [1] is reported as 1.14. Further, the IC50 was determined as 8.6 ± 0.6 µM in data set [2], 7.1 ± 0.1 µM in data set [3], 6.4 ± 1 µM in data set [4] and 2.3 ± 0.1 µM in data set [5]. Also, the “SI (selectivity index)” value in data set [2] came to 0.83; in data set [5], 2.78. Besides, the “pro-caspases 9 and 3 levels” value in data set [6] was “significant decrease in pro-caspases 9 and 3 levels”. In data set [7], the Pt uptake is listed as 14.3 ± 1.3 Pt ng/10^6 cells.

As to “Platinum(1+), (2,9-dimethyl-1,10-phenanthroline- N1,N10)(η2-ethene)octyl[1,3-dihydro-1-methyl-3-octyl-4-[1-[2,3,4,6-tetrakis-O-(acetyl)-β-D-glucopyranosyl]-1H-1,2,3-triazol-4-yl]-2H-imidazol-2-ylidene], 1,1,1-trifluoromethanesulfonate [1-Oct,Oct]”, the “Log Po/w” value in data set [1] worked out at 0.80. The IC50 stood at 4.5 ± 1.3 µM in data set [2], 7.3 ± 0.7 µM in data set [3], 6.4 ± 0.8 µM in data set [4] and 5 ± 0.6 µM in data set [5]. Further, the figures for the “SI (selectivity index)” value in data set [2] and in data set [5] were 1.62 and 1.28, respectively.
